Results from US20190365675A1, “COMPOSITIONS FOR THE PREVENTION AND/OR TREATMENT OF ALCOHOL USE DISORDERS” (SERVICIO ANDALUZ DE SALUD, priority 2016, published 2019).

Assays:
Format in all cases: in vivo, Wistar rats
rats = experiment: Elevated plus maze test during ethanol withdrawal
Procedure: In this third experiment (n=25), the treatment with ethanol intoxication and pre-treatment with OEA applied in experiment 2 was repeated, and the animals were subjected to elevated plus maze test 24 h and 12 days after the last forced administration of ethanol and to the forced swim test 48 h after the ethanol intoxication protocol. The rats were subjected to the forced swim test two days after the last ethanol force-feeding (see FIG. 1C for the experimental design), and specific behaviors were recorded with a digital video camera for 5 minutes. These same rats were also subjected to the elevated plus maze test equipped with infrared light photography (Panlab, Barcelona, Spain) 1 and 12 days after the last ethanol force-feeding, where the animals were allowed to freely explore the maze for 5 minutes. The tests were performed 3 h after the start of the dark phase.

MCP-1 = MCP-1 levels (ELISA) in frontal cortex after ethanol intoxication; details: OEA pre-treatment
Procedure: (§1) The animals were treated with intragastric (i.g.) ethanol 3 times a day using an i.g. cannula (16G needle, Fisher Scientific, Waltham, Mass., USA), following a protocol based on a slightly modified standard 4-day alcohol intoxication pattern (Bernier et al., 2002a, b) (FIG. 1A). The ethanol doses were administered every 8 h for a total time of 4 days. The rats treated with ethanol received an initial loading dose of 5 g/kg of ethanol in a 30% solution (w/v) and then a maximum maintenance dose of 3 g/kg, which were determined based on blood ethanol levels (BEL). This repeated standard alcohol intoxication paradigm kept BEL intoxication relatively constant in a range of sedation/ataxia (190 to 430 mg/dl, Table 3), according to the 6-point alcohol intoxication behavior scale (Majchrowicz, 1975). The mean dose of ethanol/rat/day (days 1-4) was 7.06 g/kg, similar to other studies (Obernier et al., 2002a, b). […] The levels of soluble HMGB1, TNF-α, IL-1β and MCP-1 were determined by means of a commercially available enzyme-linked immunosorbent assay kit (ELISA) (Elabscience Biotechnology Co., Ltd., China, for HMGB-1; RayBiotech®, GA, USA, for TNF-α, IL-1β, and MCP-1). The nuclear/cytosol HMGB1 fraction was determined by means of Western blot analysis.

control animals = experiment: OEA time curve in control animals; details: time curve 3 h, 6 h, 24 h; some trends at 3 h (TLR4, p65)
Procedure: A time curve (n=18) was also established with OEA (3 h, 6 h, and 24 h) to rule out any effect in the control animals.

4-hydroxynonenal (4-HNE) = experiment: Lipid peroxidation (HNE adduct ELISA) in frontal cortex after ethanol intoxication; details: significant only in animals treated with ethanol, OEA pre-treatment
Procedure: as §1, with “b). OEA (5 mg/kg, i.p., except initial dose of 10 mg/kg i.p.; synthesized as described in Giuffrida et al., 2000) was dissolved in the vehicle (5% Tween-80 in saline solution) and injected 10 minutes before each of the administrations of ethanol by an intragastric gavage.” for “b).”, “HNE protein adducts in cerebral cortex lysates” for “soluble HMGB1, TNF-α, IL-1β and MCP-1”, “measured using an OxiSelect™ HNE adduct competitive ELISA 96-well” for “determined by means of a commercially available enzyme-linked immunosorbent assay”, “(Cell Biolabs®, San Diego, Calif., USA).” for “(ELISA) (Elabscience Biotechnology Co., Ltd., China, for HMGB-1; RayBiotech®, GA, USA, for TNF-α, IL-1β, and MCP-1). The nuclear/cytosol HMGB1 fraction was determined by means of Western blot analysis.”

CCCCCCCC/C=C\CCCCCCCC(=O)NCCO [OEA, oleoylethanolamide]
Elevated plus maze: percentage of entries and time in the open arms (rats; 24 h after ethanol intoxication, Dunn's post-hoc test did not find significant effects): clear trend that shows a clear anxiolytic effect | Elevated plus maze: percentage of entries and time in the open arms (rats; 12 days after ethanol intoxication): not significant | Ethanol-induced increase in MCP-1 levels (MCP-1): prevented | Effect of OEA on the parameters in control animals (control animals): did not significantly modify | Formation of HNE (lipid peroxidation) (4-hydroxynonenal (4-HNE)): reduced
